Our source for the AC50 values is ChEMBL document CHEMBL5291721, “A preclinical secondary pharmacology resource illuminates target-adverse drug reaction associations of marketed drugs” (Nat Commun, 2023).

The target of test [1] is T1, Gamma-aminobutyric acid receptor subunit alpha-1/alpha-2/beta-2/gamma-2 (Homo sapiens, UniProt P14867+P18507+P47869+P47870). In kind it is functional, cell-based.
Test [2] deals with Sodium channel protein type 5 subunit alpha (Homo sapiens, UniProt Q14524). Format: functional, cell-based.
Test [3] addresses T2, Peroxisome proliferator-activated receptor gamma (Homo sapiens, UniProt P37231).
T2 sequence (P37231 whole entry): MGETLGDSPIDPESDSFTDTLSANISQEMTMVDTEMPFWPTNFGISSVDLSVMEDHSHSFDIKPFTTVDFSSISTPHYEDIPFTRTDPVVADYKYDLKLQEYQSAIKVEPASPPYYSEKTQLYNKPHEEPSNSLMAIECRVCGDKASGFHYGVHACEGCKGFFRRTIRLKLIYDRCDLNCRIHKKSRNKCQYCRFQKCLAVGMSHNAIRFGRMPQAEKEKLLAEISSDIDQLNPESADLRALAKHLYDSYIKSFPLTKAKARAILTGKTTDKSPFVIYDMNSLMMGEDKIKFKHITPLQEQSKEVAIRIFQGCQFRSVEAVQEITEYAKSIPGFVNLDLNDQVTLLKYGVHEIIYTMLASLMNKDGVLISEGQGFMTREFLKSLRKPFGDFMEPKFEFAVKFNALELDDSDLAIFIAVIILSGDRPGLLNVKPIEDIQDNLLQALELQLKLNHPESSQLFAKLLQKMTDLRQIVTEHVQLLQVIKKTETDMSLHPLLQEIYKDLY
In kind it is functional.

Test [4] has as its target T1, Gamma-aminobutyric acid receptor subunit alpha-1/alpha-2/beta-2/gamma-2. Format: functional, cell-based. The source holds these as a separate data set.
The target of test [5] is T2, Peroxisome proliferator-activated receptor gamma. Format: functional. The source holds these as a separate data set.
The target in test [6] is D(1A) dopamine receptor (Homo sapiens, UniProt P21728). Format: functional, cell-based.
In test [7] the target is Vascular endothelial growth factor receptor 2 (Homo sapiens, UniProt P35968). In kind it is functional.
The target in test [8] is Receptor tyrosine-protein kinase erbB-2 (Homo sapiens, UniProt P04626). Format: functional.
Test [9] deals with T3, Adenosine receptor A1 (Homo sapiens, UniProt P30542).
T3 sequence (P30542 whole entry): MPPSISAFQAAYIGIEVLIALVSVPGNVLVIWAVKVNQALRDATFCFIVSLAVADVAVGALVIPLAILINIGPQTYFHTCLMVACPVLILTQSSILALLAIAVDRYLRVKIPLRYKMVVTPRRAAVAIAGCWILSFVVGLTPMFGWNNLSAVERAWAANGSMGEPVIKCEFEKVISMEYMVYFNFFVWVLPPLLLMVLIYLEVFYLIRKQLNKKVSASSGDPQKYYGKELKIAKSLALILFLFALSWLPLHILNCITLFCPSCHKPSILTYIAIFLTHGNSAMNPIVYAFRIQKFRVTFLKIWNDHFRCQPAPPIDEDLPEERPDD

For test [10], the target named is Substance-P receptor (Homo sapiens, UniProt P25103).
Test [11] concerns the target T4, Progesterone receptor (Homo sapiens, UniProt P06401).
T4 sequence (P06401 whole entry): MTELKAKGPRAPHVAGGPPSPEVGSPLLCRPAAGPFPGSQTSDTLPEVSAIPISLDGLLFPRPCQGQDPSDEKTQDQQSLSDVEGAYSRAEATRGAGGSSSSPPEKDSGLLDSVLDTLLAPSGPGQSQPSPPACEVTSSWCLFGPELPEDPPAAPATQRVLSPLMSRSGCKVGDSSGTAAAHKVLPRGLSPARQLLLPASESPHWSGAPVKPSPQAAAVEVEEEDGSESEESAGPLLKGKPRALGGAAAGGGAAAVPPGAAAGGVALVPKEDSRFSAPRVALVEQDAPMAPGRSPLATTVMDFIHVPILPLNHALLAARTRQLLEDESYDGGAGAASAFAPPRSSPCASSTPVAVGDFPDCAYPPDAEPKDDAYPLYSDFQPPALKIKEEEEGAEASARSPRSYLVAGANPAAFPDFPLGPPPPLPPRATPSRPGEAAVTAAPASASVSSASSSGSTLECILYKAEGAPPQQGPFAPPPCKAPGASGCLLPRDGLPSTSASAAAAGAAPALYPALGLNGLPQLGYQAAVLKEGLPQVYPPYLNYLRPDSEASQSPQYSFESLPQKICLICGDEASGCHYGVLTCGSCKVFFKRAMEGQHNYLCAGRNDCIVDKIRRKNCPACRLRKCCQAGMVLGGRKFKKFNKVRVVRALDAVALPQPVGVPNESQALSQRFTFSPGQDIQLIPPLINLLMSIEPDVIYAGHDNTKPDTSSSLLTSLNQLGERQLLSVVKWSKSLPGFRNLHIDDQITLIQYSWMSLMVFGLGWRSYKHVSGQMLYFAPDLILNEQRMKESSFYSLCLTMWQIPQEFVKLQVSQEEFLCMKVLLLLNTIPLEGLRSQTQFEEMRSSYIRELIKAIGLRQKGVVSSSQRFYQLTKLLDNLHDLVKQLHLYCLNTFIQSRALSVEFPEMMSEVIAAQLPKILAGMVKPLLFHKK
Also: assay procedure not described here.

T1 sequence (P14867 whole entry): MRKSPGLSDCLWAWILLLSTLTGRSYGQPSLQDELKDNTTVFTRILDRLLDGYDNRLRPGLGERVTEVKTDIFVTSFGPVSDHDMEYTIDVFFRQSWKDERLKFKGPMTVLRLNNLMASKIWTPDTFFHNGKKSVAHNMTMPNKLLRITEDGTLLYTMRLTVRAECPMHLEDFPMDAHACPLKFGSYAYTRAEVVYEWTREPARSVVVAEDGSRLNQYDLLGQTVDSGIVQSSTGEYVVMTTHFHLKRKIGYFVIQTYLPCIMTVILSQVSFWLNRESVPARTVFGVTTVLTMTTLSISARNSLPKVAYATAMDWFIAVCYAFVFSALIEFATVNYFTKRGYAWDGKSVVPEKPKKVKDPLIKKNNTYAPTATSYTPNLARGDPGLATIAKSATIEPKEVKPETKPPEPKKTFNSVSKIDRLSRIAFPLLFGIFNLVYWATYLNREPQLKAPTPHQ
T1 sequence (P47870 whole entry): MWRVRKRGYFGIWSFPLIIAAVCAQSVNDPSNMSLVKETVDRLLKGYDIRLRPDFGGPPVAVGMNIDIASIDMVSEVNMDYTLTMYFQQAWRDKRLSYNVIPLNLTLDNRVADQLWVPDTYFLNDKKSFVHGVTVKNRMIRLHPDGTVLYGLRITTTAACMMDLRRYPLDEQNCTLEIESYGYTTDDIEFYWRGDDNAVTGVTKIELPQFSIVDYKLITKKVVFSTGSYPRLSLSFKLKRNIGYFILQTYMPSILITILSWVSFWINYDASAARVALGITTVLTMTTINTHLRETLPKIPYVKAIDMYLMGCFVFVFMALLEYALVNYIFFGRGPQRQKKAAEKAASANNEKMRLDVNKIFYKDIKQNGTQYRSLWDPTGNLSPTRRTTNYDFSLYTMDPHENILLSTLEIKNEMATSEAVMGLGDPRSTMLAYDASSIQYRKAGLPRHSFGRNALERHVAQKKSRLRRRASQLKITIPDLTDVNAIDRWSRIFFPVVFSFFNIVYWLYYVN
T1 sequence (P18507 whole entry): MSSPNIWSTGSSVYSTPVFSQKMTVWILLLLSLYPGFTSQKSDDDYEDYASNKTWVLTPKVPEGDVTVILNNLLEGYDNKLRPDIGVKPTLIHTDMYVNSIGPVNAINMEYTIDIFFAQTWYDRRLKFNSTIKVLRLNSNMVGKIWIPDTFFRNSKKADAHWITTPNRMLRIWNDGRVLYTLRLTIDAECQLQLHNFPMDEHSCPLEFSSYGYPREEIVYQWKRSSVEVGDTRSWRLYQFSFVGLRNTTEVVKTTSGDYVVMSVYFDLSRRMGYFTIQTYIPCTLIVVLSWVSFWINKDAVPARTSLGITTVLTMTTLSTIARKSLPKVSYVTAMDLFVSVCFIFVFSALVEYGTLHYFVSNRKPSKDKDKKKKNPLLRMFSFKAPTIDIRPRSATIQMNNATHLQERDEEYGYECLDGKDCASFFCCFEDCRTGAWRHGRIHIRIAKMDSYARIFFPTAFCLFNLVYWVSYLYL
T1 sequence (P47869 whole entry): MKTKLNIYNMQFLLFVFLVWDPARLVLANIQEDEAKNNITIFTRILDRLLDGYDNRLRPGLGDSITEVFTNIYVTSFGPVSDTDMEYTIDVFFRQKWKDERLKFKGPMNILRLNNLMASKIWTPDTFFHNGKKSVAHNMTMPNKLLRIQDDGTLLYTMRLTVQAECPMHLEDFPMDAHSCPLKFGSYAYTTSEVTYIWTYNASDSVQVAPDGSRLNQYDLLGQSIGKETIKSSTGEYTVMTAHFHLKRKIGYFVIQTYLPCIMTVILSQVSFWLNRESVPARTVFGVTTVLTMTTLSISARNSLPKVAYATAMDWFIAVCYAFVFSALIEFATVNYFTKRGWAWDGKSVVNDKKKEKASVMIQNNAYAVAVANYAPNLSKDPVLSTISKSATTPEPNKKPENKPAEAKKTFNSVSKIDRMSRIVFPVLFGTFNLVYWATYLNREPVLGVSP
Sequence of Sodium channel protein type 5 subunit alpha (Q14524 whole entry): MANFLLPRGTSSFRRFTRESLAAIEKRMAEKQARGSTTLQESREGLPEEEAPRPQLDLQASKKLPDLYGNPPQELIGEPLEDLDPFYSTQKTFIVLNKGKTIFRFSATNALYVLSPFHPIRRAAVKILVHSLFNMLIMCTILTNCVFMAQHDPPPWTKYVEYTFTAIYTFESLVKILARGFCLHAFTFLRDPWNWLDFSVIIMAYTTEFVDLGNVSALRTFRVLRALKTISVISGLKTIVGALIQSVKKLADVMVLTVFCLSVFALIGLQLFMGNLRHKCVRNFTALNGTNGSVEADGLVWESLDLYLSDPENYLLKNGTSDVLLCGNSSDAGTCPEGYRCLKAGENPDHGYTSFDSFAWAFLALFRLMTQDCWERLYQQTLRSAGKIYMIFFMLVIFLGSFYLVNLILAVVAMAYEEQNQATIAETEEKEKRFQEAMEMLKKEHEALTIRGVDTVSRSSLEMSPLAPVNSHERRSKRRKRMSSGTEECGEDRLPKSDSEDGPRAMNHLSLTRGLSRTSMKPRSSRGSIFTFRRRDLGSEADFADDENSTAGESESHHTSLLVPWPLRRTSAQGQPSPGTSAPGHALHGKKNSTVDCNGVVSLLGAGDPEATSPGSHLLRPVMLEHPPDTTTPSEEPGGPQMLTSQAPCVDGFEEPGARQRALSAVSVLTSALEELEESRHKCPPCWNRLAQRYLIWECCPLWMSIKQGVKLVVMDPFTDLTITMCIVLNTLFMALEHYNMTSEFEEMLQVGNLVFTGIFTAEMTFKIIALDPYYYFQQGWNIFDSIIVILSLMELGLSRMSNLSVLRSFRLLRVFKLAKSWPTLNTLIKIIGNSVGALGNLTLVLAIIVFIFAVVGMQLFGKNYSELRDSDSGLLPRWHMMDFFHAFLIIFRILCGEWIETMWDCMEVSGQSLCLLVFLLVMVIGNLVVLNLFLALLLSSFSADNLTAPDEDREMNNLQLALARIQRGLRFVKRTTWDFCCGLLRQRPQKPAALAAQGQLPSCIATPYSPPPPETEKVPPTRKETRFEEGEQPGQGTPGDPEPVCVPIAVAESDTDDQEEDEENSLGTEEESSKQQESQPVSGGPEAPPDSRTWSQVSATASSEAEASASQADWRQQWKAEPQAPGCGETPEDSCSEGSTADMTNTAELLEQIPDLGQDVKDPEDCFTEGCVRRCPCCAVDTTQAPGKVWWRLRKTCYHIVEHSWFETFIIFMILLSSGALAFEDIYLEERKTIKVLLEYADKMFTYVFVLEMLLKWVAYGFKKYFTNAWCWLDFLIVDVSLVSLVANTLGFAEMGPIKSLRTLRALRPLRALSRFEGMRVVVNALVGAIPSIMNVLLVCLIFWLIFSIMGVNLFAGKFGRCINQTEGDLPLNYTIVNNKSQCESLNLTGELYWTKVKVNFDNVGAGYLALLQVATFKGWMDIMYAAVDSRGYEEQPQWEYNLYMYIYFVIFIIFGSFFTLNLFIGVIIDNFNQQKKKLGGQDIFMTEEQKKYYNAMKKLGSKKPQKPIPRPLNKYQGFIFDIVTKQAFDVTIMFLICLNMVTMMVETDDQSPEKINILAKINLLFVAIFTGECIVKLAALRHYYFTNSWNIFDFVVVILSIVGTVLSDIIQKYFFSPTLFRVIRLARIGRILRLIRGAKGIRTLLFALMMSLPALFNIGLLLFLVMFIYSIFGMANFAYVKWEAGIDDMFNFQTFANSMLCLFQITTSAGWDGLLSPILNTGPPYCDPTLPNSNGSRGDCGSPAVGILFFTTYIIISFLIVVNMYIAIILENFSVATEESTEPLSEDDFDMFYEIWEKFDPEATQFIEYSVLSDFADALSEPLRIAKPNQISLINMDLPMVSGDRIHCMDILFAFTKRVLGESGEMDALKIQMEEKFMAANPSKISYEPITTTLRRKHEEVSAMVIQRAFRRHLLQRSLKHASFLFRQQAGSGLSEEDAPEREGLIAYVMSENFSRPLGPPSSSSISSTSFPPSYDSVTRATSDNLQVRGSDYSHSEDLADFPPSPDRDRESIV
Sequence of D(1A) dopamine receptor (P21728 whole entry): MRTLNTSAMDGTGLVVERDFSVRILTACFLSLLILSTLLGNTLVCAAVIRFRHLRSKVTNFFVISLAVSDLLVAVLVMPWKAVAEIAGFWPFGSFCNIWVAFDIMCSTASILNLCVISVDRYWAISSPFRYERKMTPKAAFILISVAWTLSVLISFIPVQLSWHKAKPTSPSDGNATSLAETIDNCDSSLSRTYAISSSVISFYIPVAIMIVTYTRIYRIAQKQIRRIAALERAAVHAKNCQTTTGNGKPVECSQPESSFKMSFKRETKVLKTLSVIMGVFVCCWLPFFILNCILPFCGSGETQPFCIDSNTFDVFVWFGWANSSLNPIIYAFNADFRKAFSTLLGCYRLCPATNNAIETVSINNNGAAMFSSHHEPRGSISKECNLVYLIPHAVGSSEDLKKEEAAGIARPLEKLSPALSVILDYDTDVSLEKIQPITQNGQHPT
Sequence of Substance-P receptor (P25103 whole entry): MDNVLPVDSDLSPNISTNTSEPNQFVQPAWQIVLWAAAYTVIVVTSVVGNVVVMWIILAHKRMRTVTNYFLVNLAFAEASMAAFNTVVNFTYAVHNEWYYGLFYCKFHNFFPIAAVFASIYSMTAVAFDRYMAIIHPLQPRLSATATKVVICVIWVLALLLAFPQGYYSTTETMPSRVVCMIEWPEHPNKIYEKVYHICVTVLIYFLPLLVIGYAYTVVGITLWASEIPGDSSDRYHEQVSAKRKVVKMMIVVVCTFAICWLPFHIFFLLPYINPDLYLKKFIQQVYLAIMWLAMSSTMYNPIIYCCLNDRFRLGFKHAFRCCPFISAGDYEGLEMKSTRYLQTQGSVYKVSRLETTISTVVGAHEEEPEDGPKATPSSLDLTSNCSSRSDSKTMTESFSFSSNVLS

Take `CN1CC2c3ccccc3Oc3ccc(Cl)cc3C2C1` (stereo unspecified) [ASENAPINE]: the AC50 in [1] was above 30 µM; in test [2] it was 2 µM; in test [3], above 30 µM; in test [4] it was 6.5 µM; in test [5], above 30 µM; in test [6], 0.244 µM. For the same compound, the AC50 in [7] and in test [8] was above 30 µM throughout.

With `Cn1cnc2c(F)c(Nc3ccc(Br)cc3F)c(C(=O)NOCCO)cc21` [BINIMETINIB], the AC50 in test [1], in test [2], in test [3], in test [4], in test [5] and in test [6] was above 30 µM throughout. The concentration at half-maximal activity (AC50) in [7] and in test [8] was above 30 µM in each case.

Take `C[C@H](CCC(=O)O)[C@H]1CC[C@H]2[C@@H]3[C@H](O)C[C@@H]4C[C@H](O)CC[C@]4(C)[C@H]3CC[C@]12C` [CHENODIOL]: the AC50 in test [1] was above 30 µM; in test [2], above 50 µM; in test [3] it was above 30 µM; in test [4], above 30 µM; in test [5], above 30 µM; in [6], above 30 µM. In addition, the figures for the AC50 in test [7] and in test [8] were above 3 µM and above 30 µM, respectively.

Regarding `C[C@H](Nc1ncnc2[nH]cnc12)c1cc2cccc(Cl)c2c(=O)n1-c1ccccc1` [DUVELISIB], the AC50 in test [1] is above 30 µM; in test [2] it was above 50 µM; in test [3] it was above 30 µM; in test [4] it was above 30 µM; in [5] it was above 30 µM; in test [6], above 30 µM. Further, the AC50 in [7], in test [9] and in [8] was above 30 µM throughout.

Take `NCC1(CC(=O)O)CCCCC1` [GABAPENTIN]: the AC50 is above 30 µM in test [1]; above 30 µM in [2]; above 30 µM in test [3]; above 30 µM in test [4]; above 10 µM in [10]; above 30 µM in test [5]. In addition, the AC50 in [6], in test [7], in test [11] and in [8] was above 30 µM each time.

Take `CO[C@@H]1[C@@H](OC(N)=O)[C@@H](O)[C@H](Oc2ccc3c(O)c(NC(=O)c4ccc(O)c(CC=C(C)C)c4)c(=O)oc3c2C)OC1(C)C` [NOVOBIOCIN]: the AC50 in test [1] is above 30 µM; in test [2], above 50 µM; in [3] it was above 30 µM; in test [4], above 30 µM; in test [5], above 30 µM; in test [6] it was above 30 µM. The results for the AC50 in test [7] and in test [8] were 25 µM and above 30 µM, respectively.
